Laboratory results from patent US20250228757A1, “SUNSCREEN COMPOUNDS AND FORMULATIONS” (Oregon State University, priority 2024, published 2025).
Entries after “also recorded” stand apart in the source; their conditions may differ. Like-named read-outs stand apart in the source and are kept apart here.

Experiments:
HaCaT cells [1] = experiment: Dose-response MTS viability assay without UVB; format: cell-based, human; conditions: 48 h, 3.125-50 μM, absence of UVB irradiation
Method: (§1) Immortalized keratinocyte HaCaT cells (ATCC, Manassas, VA, USA) were cultured in DMEM supplemented with 5% fetal bovine serum. Human primary epidermal keratinocytes (HPEKs) (ATCC) were cultured in EpiLife medium (ThermoFisher Scientific) supplemented with Human Keratinocyte Growth Supplement (ThermoFisher Scientific). HPEKs were maintained below ten passages. Cell lines were incubated in a humidified environment at 37° C. with 5% CO2.
(§2) For viability studies, HaCaT cells were seeded 5000 cells/well in clear 96-well plates (Corning, Corning, NY, USA). After 24 h, cells were treated with MBITC or MBA at 0, 3.125, 6.25, 12.5, 25, or 50 μM and incubated with the compounds for 48 h. Viability was then determined by MTS assay using CellTiter 96® AQueous One Solution Cell Proliferation Assay (Promega Corporation, Madison, WI, USA). Absorption was measured using Cytation® 5.0 Imaging Reader (Agilent, Santa Clara, CA, USA). HPEKs were seeded 5000 cells/well into white, opaque bottom 96-well plates (Greiner Bio-One) and incubated for 48 h. HPEKs were then treated with ethanol vehicle control or a 5-point half-log serial dilution of MBA starting at 50 μM. After 48 h, CellTiter-Glo® (Promega Corporation, Madison, WI) viability assays were performed per the manufacturer's instructions, and luminescence was read using a Synergy4 (Biotek, Winooski, VT) plate reader.

[2] = tested on: human primary epidermal keratinocytes (HPEKs); experiment: Dose-response CellTiter-Glo viability assay without UVB; format: cell-based; conditions: 48 h, up to 50 μM, absence of UVB
Method: as §1, §2

UVB absorption assay = format: physicochemical; conditions: for UVB absorption: time needed to reach a 5 mJ/cm^2 dose: in ethanol, 1, 10, 25, 50 μM
Method: MBITC or MBA was diluted in ethanol at 0, 1, 10, 25, and 50 μM, added to separate wells of a 24-well plate (Corning, Corning, NY, USA), and irradiated with UVB light using a UV Transilluminator 2000 (Bio-Rad, Hercules, CA, USA) to reach 5 mJ/cm^2 or 10 mJ/cm^2. A Daavlin X-96 irradiance meter (Daavlin, Bryan, OH, USA) measured energy transmittance through the dish. Each well was separately irradiated, and the time was measured to reach the specified energy density.

HaCaT cells [3] = experiment: UV protection dose-response MTS assay; format: cell-based, human
Method: as §1
For UV protection dose-response assays, HaCaT cells were seeded 5000 cells/well into clear 96-well plates (Corning). After 24 h, cells were treated with MBITC or MBA at 0, 3.125, 6.25, 12.5, 25, or 50 µM and incubated for 12 h. Cells were washed in PBS and irradiated with 10 mJ/cm^2 UVB using a UV Transilluminator 2000. After irradiation, fresh media was added, cells incubated for 36 h, and viability was determined by MTS assay as before. HPEKs were seeded 5000 cells/well into black, opaque bottom 96-well plates (Greiner Bio-One, Monroe, NC, USA) and incubated for 48 h. Afterward, cells were treated with vehicle control or a 10-point half-log serial dilution of MBITC or MBA starting at 50 μM and incubated for 12 h. Before irradiation, the conditioned cell culture medium was re-moved from each well, retained, and PBS containing the same dose of EtOH or the compounds was added to the wells. Cells were irradiated with a 10 mJ/cm^2 dose using UVB TL 20W/12 RS M3 lights (Philips, Amsterdam, Netherlands). The dose of UVB was quantified using an IL1400A NIST Traceable Photometer (International Light, Peabody, MA, USA). Following irradiation, the PBS was aspirated from the wells, and conditioned media was added. After 36 h, CYQUANT® (ThermoFisher Scientific) assays were performed per the manufacturer's instructions, and fluorescent signal read using a Synergy4® (Biotek, Winooski, VT) plate reader. Cell counts were extrapolated from a standard curve of fluorescent signal activity vs. HPEK cell counts. Time kinetics involved the same compound and UVB treatment scheme as before, but CYQUANT® assays were performed at 24, 48, 72, or 96 h post-UVB irradiation.

[4] = tested on: human primary epidermal keratinocytes (HPEKs); experiment: UV protection CyQuant cell count assay (dose-response and time kinetics); format: cell-based; conditions: 10 mJ/cm^2 UVB
Method: as §1
For UV protection dose-response assays, HaCaT cells were seeded 5000 cells/well into clear 96-well plates (Corning). After 24 h, cells were treated with MBITC or MBA at 0, 3.125, 6.25, 12.5, 25, or 50 µM and incubated for 12 h. Cells were washed in PBS and irradiated with 10 mJ/cm^2 UVB using a UV Transilluminator 2000. After irradiation, fresh media was added, cells incubated for 36 h, and viability was determined by MTS assay as before. HPEKs were seeded 5000 cells/well into black, opaque bottom 96-well plates (Greiner Bio-One, Monroe, NC, USA) and incubated for 48 h. […] The dose of UVB was quantified using an IL1400A NIST Traceable Photometer (International Light, Peabody, MA, USA). […] After 36 h, CYQUANT® (ThermoFisher Scientific) assays were performed per the manufacturer's instructions, and fluorescent signal read using a Synergy4® (Biotek, Winooski, VT) plate reader. […]

[5] = tested on: cyclobutane pyrimidine dimers (CPDs) in HPEKs; experiment: Immunocytochemistry for cyclobutane pyrimidine dimers after UVB; format: cell-based, human; conditions: 12 h treatment, 5 mJ/cm^2 UVB
Method: HPEKs were cultured to 80% confluence in 6-well plates containing gelatin-coated coverslips and treated with ethanol vehicle control or MBA. After 12 h, the conditioned cell culture medium was removed, retained, and PBS containing EtOH or MBA was added to each well. Plates were then irradiated with 5 mJ/cm^2 UVB, PBS removed, conditioned media re-added, and incubated for 24 h. Cells were then fixed in 75% methanol/25% acetic acid, washed with 70% EtOH, and DNA denatured in 70 mM NaOH (in 70% EtOH). Wells were then washed 3 times with PBS and denaturation quenched with 100 mM Tris —HCl (in 70% EtOH). Cells were then blocked with 10% normal goat serum (NGS) in PBS-T and incubated overnight at 4° C. with α-thymine dimer primary antibody (1:1000, Kamiya Bio-medical, Matsumoto, Nagano, Japan) in NGS blocking buffer. […] Corrected total cellular fluorescence (CTCF) was quantified using the ImageJ software package as described previously, except only nuclear CTCF for CPD staining was quantified and nuclei were selected for ROIs using manual thresholding for each field (Carpenter et al., J Invest Dermatol 2022, 142:1903-1911). For all quantifications, cells on the edges of each field were excluded.

p-γH2A.X in HPEKs = experiment: Immunoblotting for p-γH2A.X after UVB; format: cell-based, human; conditions: 5 mJ/cm^2 UVB; for p-γH2A.X reduction: 1 μM (lowest tested dose); for p-γH2A.X staining: 25 and 50 μM (higher concentrations)
Method: HPEKs were cultured to 80% confluence in 6-well plates and treated with ethanol vehicle control or MBA. Cells were then irradiated in the same manner as immunocytochemistry samples. After 36 h, cells were harvested by scraping into cold PBS, centrifuged, pellet resuspended in denaturing SDS lysis buffer, boiled, and sonicated as described previously (Carpenter et al., Mol Carcinog 2019, 58:1680-1690). Samples were normalized to protein content as determined by BCA Assay (ThermoFisher Scientific). SDS-PAGE was then performed using 10% gels and transferred to a 0.45 μm nitrocellulose membrane (GE Healthcare, Chicago, IL, USA). Blots were blocked for 1 h in 5% nonfat dry milk in TBS-T and incubated with α-p-γH2A.X antibody (1:1000, Cell Signaling Technology, Danvers, MA, USA) or Actin (1:2000, Bethyl Laboratories, Inc., Montgomery, TX, USA) in 5% bovine serum albumin in TBS-T overnight at 4° C. The next day, blots were incubated with HRP-conjugated Goat anti-rabbit IgG or Goat anti-mouse IgG secondary antibodies (1:2000, Calbiochem, San Diego, CA, USA) for 1 h. The immunoblots were developed using chemiluminescent reagents (GE Healthcare) and imaged with a MyECL imager (ThermoFisher Scientific).

UV spectra = format: physicochemical; conditions: UV spectrum
Solubility = format: physicochemical
human skin equivalents = conditions: Carpenter et al. 2018; cited from earlier work
HPEKs = conditions: previous study, absence of UVB; cited from earlier work
[6] = HaCaT, 12 h treatment, 10 mJ/cm^2 UVB, MTS after 36 h

Compound	cytotoxicity (viability, MTS) (HaCaT cells [1])	cytotoxicity (viability, CellTiter-Glo) [2]	UVB absorption: time needed to reach a 5 mJ/cm^2 dose (UVB absorption assay)	cytotoxic effects in the presence of UVB light (HaCaT cells [3]; [6])	protective effect, time kinetics ([4]; incubation up to four days)	prevention of UV-induced loss in proliferation (dose-response) ([4]; 12 h treatment, CyQuant)	intensity of the CPD staining (CTCF) [5]	total number of CPD+ cells vs vehicle control [5]	p-γH2A.X reduction (p-γH2A.X in HPEKs)	p-γH2A.X staining (p-γH2A.X in HPEKs)	λmax (UV spectra) [nm]	solubility in ethanol (Solubility)	UVB absorption capacity, compared (UVB absorption assay; time needed to reach 5 or 10 mJ/cm^2)	cytotoxic effects in the presence of UVB light (HaCaT cells [3])	protection from UVB-induced loss in proliferation (HaCaT cells [3]; [6])	UVB-induced DNA damage, proliferation, and matrix-metalloproteinase expression (human skin equivalents)	cytotoxic effects in HPEKs (HPEKs)
CCCCCCCCCCCCCC/C=C\CCCC(=O)NCc1cccc(OC)c1 [MBA, (Z)—N-(3-methoxybenzyl)eicos-5-enamide]	little to no effect	not cytotoxic at the tested doses	only showed similar activity at a single concentration of 25 μM	did not exhibit the same cytotoxic effects as the parental compound	did not reveal a protective effect	had the same effect as in HaCaT cells	substantially decreased	small but significant difference	trend of reduced p-γH2A.X	lack of elevated p-γH2A.X	273	ethanol soluble					
COc1cccc(CN=C=S)c1 [MBITC, 3-methoxybenzyl isothiocyanate]			sufficient to increase the time needed to reach a 5 mJ/cm^2 dose at every tested concentration except 50 μM, where the time significantly decreased						less reduction; also recorded: trend of reduced p-γH2A.X	trend of increased p-γH2A.X staining compared to MBA	273		more UVB absorption capacity than MBA	displayed cytotoxic effects in the presence of UVB light	did not reverse the loss of proliferation	reduce	exhibited cytotoxic effects
COc1cccc(CCC#N)c1 [MPACN, 3-methoxybenzyl acetonitrile]																reduce	
